A word on the melting point: it is the temperature, or range, at which the solid turns liquid. In the case of `COc1ccc(/C=C\c2cc(OC)cc(OC)c2N)cc1`, the melting point fell in the range of 83.2 to 86.3 °C.
The value for `COc1ccc(/C=C\c2cc(OC)c(OC)cc2N)cc1` was 62.7 to 63.8 °C.
As to `COc1ccc(/C=C\c2cc(OC)c(OC)c(OC)c2N)cc1N`, the melting point was 97.3 to 98.1 °C.

The record behind these values is patent US7560491B2, “Z-stilbenes derivatives and the pharmaceutical composition thereof” (Taipei Medical University, priority 2006, dated 2009).
